Target: p38 (Homo sapiens, UniProt Q16539)
Assay: Protein Kinase Assay (33P incorporation from γ-[33P]ATP into GST-ATF-2)
Assay type: biochemical
Conditions: 2 nM p38, preincubated 20 min at 30° C.; 10 uM cold ATP, 2 uM GST-ATF2, 70 min; read-out: ACT. (Activity), IC50 category in Protein Kinase Assay
Procedure, shortened: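 Compounds preincubated 20 min at 30 °C with 2 nM p38; reaction started with 2 uM GST-ATF-2 (aa 19-96) and 10 uM ATP plus γ-[33P]ATP, pH 7.5, 70 min at 30 °C, 2% DMSO. Phosphoric acid stop; 33P-labelled substrate captured on phosphocellulose and counted by scintillation.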

Chain of p38 (Q16539 whole entry): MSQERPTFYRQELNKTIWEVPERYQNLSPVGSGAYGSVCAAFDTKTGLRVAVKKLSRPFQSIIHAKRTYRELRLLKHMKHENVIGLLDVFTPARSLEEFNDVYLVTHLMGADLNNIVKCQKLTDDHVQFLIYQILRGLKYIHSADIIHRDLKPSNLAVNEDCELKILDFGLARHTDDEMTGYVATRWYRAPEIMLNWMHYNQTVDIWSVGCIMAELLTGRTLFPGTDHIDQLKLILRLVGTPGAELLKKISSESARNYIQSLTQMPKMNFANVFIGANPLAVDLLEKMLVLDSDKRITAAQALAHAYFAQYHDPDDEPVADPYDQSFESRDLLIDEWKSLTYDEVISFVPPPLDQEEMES

| Compound | IC50 [nM] |
| --- | --- |
| CN(C)CCOc1ccc(-c2cccc(NC(=O)Nc3sc(C(C)(C)C)cc3C(=O)N3CCNC(=O)C3(C)C)c2)cn1 [1-(5-tert-butyl-3-(2,2-dimethyl-3-oxopiperazine-1-carbonyl)thiophen-2-yl)-3-(3-(6-(2-(dimethylamino)ethoxy)pyridin-3-yl)phenyl)urea] | < 100 |
| CCc1ccc(-c2cc(NC(=O)Nc3cn(C(C)(C)C)nc3C(=O)N3CCNC(=O)C3(C)C)ccc2C)cn1 [1-(1-tert-butyl-3-(2,2-dimethyl-3-oxopiperazine-1-carbonyl)-1H-pyrazol-4-yl)-3-(3-(6-ethylpyridin-3-yl)-4-methylphenyl)urea] | < 100 |
| Cc1ccc(NC(=O)Nc2sc(C(C)(C)C)nc2C(=O)N2CCN(C)C(=O)C2(C)C)cc1-c1ccc(CN2CCOCC2)cn1 [1-(2-tert-butyl-4-(2,2,4-trimethyl-3-oxopiperazine-1-carbonyl)thiazol-5-yl)-3-(4-methyl-3-(5-(morpholinomethyl)pyridin-2-yl)phenyl)urea] | < 100 |
| Cc1ccc(NC(=O)Nc2sc(C(C)(C)C)cc2C(=O)N2CCNS(=O)(=O)CC2)cc1-c1ccc(CN2CCOCC2)nc1 | < 100 |
| Cc1ccc(-c2cc(NC(=O)Nc3sc(C(C)(C)C)cc3C(=O)N3CCNC(=O)C3(C)C)ccc2C)nn1 [1-(5-tert-butyl-3-(2,2-dimethyl-3-oxopiperazine-1-carbonyl)thiophen-2-yl)-3-(4-methyl-3-(6-methylpyridazin-3-yl)phenyl)urea] | < 100 |
| CN(C)CCCOc1ccc(-c2cccc(NC(=O)Nc3sc(C(C)(C)C)cc3C(=O)N3CCNC(=O)C3(C)C)c2)cn1 [1-(5-tert-butyl-3-(2,2-dimethyl-3-oxopiperazine-1-carbonyl)thiophen-2-yl)-3-(3-(6-(3-(dimethylamino)propoxy)pyridin-3-yl)phenyl)urea] | < 100 |
| COc1ccc(-c2cc(NC(=O)Nc3sc(C(C)(C)C)cc3C(=O)N3CCNC(=O)C3(C)C)c(F)cc2C)cn1 [1-(5-tert-butyl-3-(2,2-dimethyl-3-oxopiperazine-1-carbonyl)thiophen-2-yl)-3-(2-fluoro-5-(6-methoxypyridin-3-yl)-4-methylphenyl)urea] | < 100 |
| COC(=O)CN1CCN(C(=O)c2cc(C(C)(C)C)sc2NC(=O)Nc2ccc(C)c(-c3ccncc3)c2)C(C)(C)C1=O [methyl 2-(4-(2-tert-butyl-5-(3-(4-methyl-3-(pyridin-4-yl)phenyl)ureido)thiophene-4-carbonyl)-3,3-dimethyl-2-oxopiperazin-1-yl)acetate] | < 100 |
| Cc1ccc(NC(=O)Nc2sc(C(C)(C)C)cc2C(=O)N2CCNC(=O)C2(C)C)cc1-c1ccncc1 [1-(5-tert-butyl-3-(2,2-dimethyl-3-oxopiperazine-1-carbonyl)thiophen-2-yl)-3-(4-methyl-3-(pyridin-4-yl)phenyl)urea] | < 100 |
| Cc1ccc(NC(=O)Nc2sc(C(C)(C)C)cc2C(=O)N2CCNC(=O)C2(C)C)cc1-c1ccc(OC2CCOCC2)nc1 [1-(5-tert-butyl-3-(2,2-dimethyl-3-oxopiperazine-1-carbonyl)thiophen-2-yl)-3-(4-methyl-3-(6-(tetrahydro-2H-pyran-4-yloxy)pyridin-3-yl)phenyl)urea] | < 100 |
| Cc1ccc(NC(=O)Nc2cn(C(C)(C)C)nc2C(=O)N2CCN(C)C(=O)C2(C)C)cc1-c1ccc(CN2CCOCC2)nc1 [1-(1-tert-butyl-3-(2,2,4-trimethyl-3-oxopiperazine-1-carbonyl)-1H-pyrazol-4-yl)-3-(4-methyl-3-(6-(morpholinomethyl)pyridin-3-yl)phenyl)urea] | < 100 |
| Cc1ccc(NC(=O)Nc2sc(C(C)(C)C)cc2C(=O)N2CCNC(=O)C2(C)C)cc1-c1ccc(OCCCN(C)C)nc1 [1-(5-tert-butyl-3-(2,2-dimethyl-3-oxopiperazine-1-carbonyl)thiophen-2-yl)-3-(3-(6-(3-(dimethylamino)propoxy)pyridin-3-yl)-4-methylphenyl)urea] | < 100 |
| CCNC(=O)c1ccc(-c2cc(NC(=O)Nc3cn(C(C)(C)C)nc3C(=O)N3CCNC(=O)C3(C)C)ccc2C)cn1 [5-(5-(3-(1-tert-butyl-3-(2,2-dimethyl-3-oxopiperazine-1-carbonyl)-1H-pyrazol-4-yl)ureido)-2-methylphenyl)-N-ethylpyridine-2-carboxamide] | < 100 |
| COc1ccc(-c2cc(NC(=O)Nc3sc(C(C)(C)C)cc3C(=O)N3CCN(C)C(=O)C3(C)C)c(F)cc2C)cn1 [1-(5-tert-butyl-3-(2,2,4-trimethyl-3-oxopiperazine-1-carbonyl)thiophen-2-yl)-3-(2-fluoro-5-(6-methoxypyridin-3-yl)-4-methylphenyl)urea] | < 100 |
| COc1ccc(NC(=O)Nc2sc(C(C)(C)C)cc2C(=O)N2CCNC(=O)C2(C)C)c(C)c1-c1ccncc1 [1-(5-tert-butyl-3-(2,2-dimethyl-3-oxopiperazine-1-carbonyl)thiophen-2-yl)-3-(4-methoxy-2-methyl-3-(pyridin-4-yl)phenyl)urea] | < 100 |
| Cc1ccc(NC(=O)Nc2sc(C(C)(C)C)cc2C(=O)N2CCNC(=O)C2(C)C)cc1-c1ncccn1 [1-(5-tert-butyl-3-(2,2-dimethyl-3-oxopiperazine-1-carbonyl)thiophen-2-yl)-3-(4-methyl-3-(pyrimidin-2-yl)phenyl)urea] | < 100 |
| Cc1ccc(NC(=O)Nc2sc(C(C)(C)C)cc2C(=O)N2CCNC(=O)C2(C)C)cc1-c1ccc(CN2CCOCC2)cn1 [1-(5-tert-butyl-3-(2,2-dimethyl-3-oxopiperazine-1-carbonyl)thiophen-2-yl)-3-(4-methyl-3-(5-(morpholinomethyl)pyridin-2-yl)phenyl)urea] | < 100 |
| Cc1ccc(NC(=O)Nc2sc(C(C)(C)C)cc2C(=O)N2CCNC(=O)C2(C)C)cc1-c1ccc(OCCN2CCCCC2)nc1 [1-(5-tert-butyl-3-(2,2-dimethyl-3-oxopiperazine-1-carbonyl)thiophen-2-yl)-3-(4-methyl-3-(6-(2-(piperidin-1-yl)ethoxy)pyridin-3-yl)phenyl)urea] | < 100 |
| CCNC(=O)c1ccc(-c2cc(NC(=O)Nc3cc(C(C)(C)C)oc3C(=O)N3CCN(C)C(=O)C3(C)C)ccc2C)cn1 [5-(5-(3-(5-tert-butyl-2-(2,2,4-trimethyl-3-oxopiperazine-1-carbonyl)furan-3-yl)ureido)-2-methylphenyl)-N-ethylpyridine-2-carboxamide] | < 100 |
| Cc1ccc(NC(=O)Nc2sc(C(C)(C)C)cc2C(=O)N2CCNC(=O)C2(C)C)cc1C#CCOCCN1CCOCC1 [1-(5-tert-butyl-3-(2,2-dimethyl-3-oxopiperazine-1-carbonyl)thiophen-2-yl)-3-(4-methyl-3-(3-(2-morpholinoethoxy)prop-1-ynyl)phenyl)urea] | < 100 |
| CCc1ccc(-c2cc(NC(=O)Nc3cn(C(C)(C)C)nc3C(=O)N3CCN(C)C(=O)C3(C)C)cc(F)c2C)cn1 [1-(1-tert-butyl-3-(2,2,4-trimethyl-3-oxopiperazine-1-carbonyl)-1H-pyrazol-4-yl)-3-(3-(6-ethylpyridin-3-yl)-5-fluoro-4-methylphenyl)urea] | < 100 |
| Cc1ccc(NC(=O)Nc2cc(C(C)(C)C)oc2C(=O)N2CCN(C)C(=O)C2(C)C)cc1-c1ccc(CN2CCOCC2)cn1 [1-(5-tert-butyl-2-(2,2,4-trimethyl-3-oxopiperazine-1-carbonyl)furan-3-yl)-3-(4-methyl-3-(5-(morpholinomethyl)pyridin-2-yl)phenyl)urea] | < 100 |
| Cc1ccc(NC(=O)Nc2sc(C(C)(C)C)cc2C(=O)N2CCNC(=O)C2(C)C)cc1-c1ccc(C(C)O)nc1 (stereo not drawn) [1-(5-tert-butyl-3-(2,2-dimethyl-3-oxopiperazine-1-carbonyl)thiophen-2-yl)-3-(3-(6-(1-hydroxyethyl)pyridin-3-yl)-4-methylphenyl)urea] | < 100 |
| Cc1ccc(NC(=O)Nc2sc(C(C)(C)C)cc2C(=O)N2CCNC(=O)C2(C)C)cc1-c1ccc(N2CCCCC2)nc1 [1-(5-tert-butyl-3-(2,2-dimethyl-3-oxopiperazine-1-carbonyl)thiophen-2-yl)-3-(4-methyl-3-(6-(piperidin-1-yl)pyridin-3-yl)phenyl)urea] | < 100 |
| CN1CCN(c2cccc(NC(=O)Nc3sc(C(C)(C)C)cc3C(=O)N3CCNC(=O)C3(C)C)c2)CC1 [1-(5-tert-butyl-3-(2,2-dimethyl-3-oxopiperazine-1-carbonyl)thiophen-2-yl)-3-(3-(4-methylpiperazin-1-yl)phenyl)urea] | < 10000 |
| Cc1ccc(NC(=O)Nc2cc(C(C)(C)C)sc2C(=O)N2CCN(C(C)C)C(=O)C2(C)C)cc1-c1ccc(CN2CCOCC2)nc1 [1-(5-tert-butyl-2-(4-isopropyl-2,2-dimethyl-3-oxopiperazine-1-carbonyl)thiophen-3-yl)-3-(4-methyl-3-(6-(morpholinomethyl)pyridin-3-yl)phenyl)urea] | < 100 |
| Cc1ccc(NC(=O)Nc2sc(C(C)(C)C)cc2C(=O)N2CCN(C)C(=O)C2(C)C)cc1-c1ccc(N2CCN(C)CC2)nc1 [1-(5-tert-butyl-3-(2,2,4-trimethyl-3-oxopiperazine-1-carbonyl)thiophen-2-yl)-3-(4-methyl-3-(6-(4-methylpiperazin-1-yl)pyridin-3-yl)phenyl)urea] | < 100 |
| Cc1ccc(NC(=O)Nc2sc(C(C)(C)C)cc2C(=O)N2CCNC(=O)C2(C)C)cc1-c1cccnc1 [1-(5-tert-butyl-3-(2,2-dimethyl-3-oxopiperazine-1-carbonyl)thiophen-2-yl)-3-(4-methyl-3-(pyridin-3-yl)phenyl)urea] | < 100 |
| CC(C)(C)c1cc(C(=O)N2CCNC(=O)C2(C)C)c(NC(=O)Nc2cccc(-c3ccncc3)c2)s1 [1-(5-tert-butyl-3-(2,2-dimethyl-3-oxopiperazine-1-carbonyl)thiophen-2-yl)-3-(3-(pyridin-4-yl)phenyl)urea] | < 100 |
| CCc1ccc(-c2cc(NC(=O)Nc3cn(C(C)(C)C)nc3C(=O)N3CCN(C)C(=O)C3(C)C)ccc2C)cn1 [1-(1-tert-butyl-3-(2,2,4-trimethyl-3-oxopiperazine-1-carbonyl)-1H-pyrazol-4-yl)-3-(3-(6-ethylpyridin-3-yl)-4-methylphenyl)urea] | < 100 |

— patent US20100041642A1, “UREA INHIBITORS OF MAP KINASES” (LOCUS PHARMACEUTICALS, INC., priority 2008, published 2010)
